Experiment [1] concerns H2228 (EML4-ALK v3). The experiment is described as follows: Cancer cell growth inhibition, MTT assay, H2228. The settings on record: Homo sapiens, NCI-H2228, 72 hours incubation. In kind it is cell-based. As to the method: (§1) The growth inhibitory effects of the compounds in Examples 3, 7, and 8 above on ALK mutant cancer cell lines were measured. Anticancer efficacy activity was measured using H3122 (EML4-ALK v1) and H2228 (EML4-ALK v3) as ALK mutant cell lines by the following method.
(§2) 2×10^5 cells were seeded in a 96-well plate. 24 hours later, each of the compounds in Examples 3, 7, and 8 was treated in a dose-dependent manner, incubated for 72 hours, reacted with 15 uL MTT reagent for 4 hours, and then 100 uL 10% SDS was added thereto and incubated for 24 hours. The change in final OD was read at 595 nm. To analyze the MTT results, IC50 values were measured using prism software.
(§3) APG-2449 was used as a control drug.

Experiment [2] deals with ALK(L1196M) (Homo sapiens, UniProt Q9UM73, L1196M). The experiment is described as follows: Kinase inhibitory activity, [33P]-ATP filter assay, ALK(L1196M). The class given is biochemical. The settings on record: ALK point mutant kinase, scintillation counting. As to the method:
(§4) For the compounds of Examples 1 to 8 above, the inhibitory activity against ALK, ALK mutation (ALK(G1202R)), and […] (ALK(L1196M)) was measured, and the results are shown in Table 1 below. […] Crizotinib […] was used as a control drug. • 1. Each kinase was incubated under 8 mM MOPS, pH 7.0, 0.2 mM EDTA, 250 μM KKKGQEEEYVFIE, 1 mM sodium orthovanadate, 5 mM sodium-6-glycerophosphate, 10 mM Magnesium acetate, [^33P]-ATP. • 2. The reaction proceeded by adding the evaluation compound (DMSO solution) and Mg/ATP. • 3. After about 40 minutes at room temperature, the reaction was terminated by adding 10 μL of 0.5% phosphoric acid. • 4. The reaction solution was divided into 0.5% 10 μL and spotted on a P30 filtermat. • 5. It was washed four times with 0.425% phosphoric acid for about 4 minutes. After washing once with methanol, it was dried and analyzed by scintillation counting to measure the IC50 value.

Experiment [3] addresses ALK (Homo sapiens, UniProt Q9UM73). Briefly: Kinase inhibitory activity, [33P]-ATP filter assay, ALK. In kind it is biochemical. The conditions noted are these: wild-type ALK kinase, scintillation counting. The method, then: as §4
The target in experiment [4] is ALK(G1202R) (Homo sapiens, UniProt Q9UM73, G1202R). Briefly: Kinase inhibitory activity, [33P]-ATP filter assay, ALK(G1202R). The conditions noted are these: ALK point mutant kinase, scintillation counting. In kind it is biochemical. As to the method:
as §4

For experiment [5], the system named is H3122 (EML4-ALK v1). The experiment is described as follows: Cancer cell growth inhibition, MTT assay, H3122. The settings on record: Homo sapiens, NCI-H3122, 72 hours incubation. The class given is cell-based. The method, then: as §1, §2, §3

Experimental findings from patent publication US20260258022A1, “NOVEL HETEROCYCLIC-SUBSTITUTED PYRIMIDINE DERIVATIVE EXHIBITING CANCER CELL GROWTH INHIBITORY EFFECT, AND PHARMACEUTICAL COMPOSITION CONTAINING SAME” (ONCOBIX CO., LTD., priority 2021, published 2026) are described below.

In general, IC50 refers to the midpoint of a concentration-inhibition curve. Read a high IC50 as weaker potency.

Chain of ALK(G1202R) (Q9UM73 19-1620 G1202R): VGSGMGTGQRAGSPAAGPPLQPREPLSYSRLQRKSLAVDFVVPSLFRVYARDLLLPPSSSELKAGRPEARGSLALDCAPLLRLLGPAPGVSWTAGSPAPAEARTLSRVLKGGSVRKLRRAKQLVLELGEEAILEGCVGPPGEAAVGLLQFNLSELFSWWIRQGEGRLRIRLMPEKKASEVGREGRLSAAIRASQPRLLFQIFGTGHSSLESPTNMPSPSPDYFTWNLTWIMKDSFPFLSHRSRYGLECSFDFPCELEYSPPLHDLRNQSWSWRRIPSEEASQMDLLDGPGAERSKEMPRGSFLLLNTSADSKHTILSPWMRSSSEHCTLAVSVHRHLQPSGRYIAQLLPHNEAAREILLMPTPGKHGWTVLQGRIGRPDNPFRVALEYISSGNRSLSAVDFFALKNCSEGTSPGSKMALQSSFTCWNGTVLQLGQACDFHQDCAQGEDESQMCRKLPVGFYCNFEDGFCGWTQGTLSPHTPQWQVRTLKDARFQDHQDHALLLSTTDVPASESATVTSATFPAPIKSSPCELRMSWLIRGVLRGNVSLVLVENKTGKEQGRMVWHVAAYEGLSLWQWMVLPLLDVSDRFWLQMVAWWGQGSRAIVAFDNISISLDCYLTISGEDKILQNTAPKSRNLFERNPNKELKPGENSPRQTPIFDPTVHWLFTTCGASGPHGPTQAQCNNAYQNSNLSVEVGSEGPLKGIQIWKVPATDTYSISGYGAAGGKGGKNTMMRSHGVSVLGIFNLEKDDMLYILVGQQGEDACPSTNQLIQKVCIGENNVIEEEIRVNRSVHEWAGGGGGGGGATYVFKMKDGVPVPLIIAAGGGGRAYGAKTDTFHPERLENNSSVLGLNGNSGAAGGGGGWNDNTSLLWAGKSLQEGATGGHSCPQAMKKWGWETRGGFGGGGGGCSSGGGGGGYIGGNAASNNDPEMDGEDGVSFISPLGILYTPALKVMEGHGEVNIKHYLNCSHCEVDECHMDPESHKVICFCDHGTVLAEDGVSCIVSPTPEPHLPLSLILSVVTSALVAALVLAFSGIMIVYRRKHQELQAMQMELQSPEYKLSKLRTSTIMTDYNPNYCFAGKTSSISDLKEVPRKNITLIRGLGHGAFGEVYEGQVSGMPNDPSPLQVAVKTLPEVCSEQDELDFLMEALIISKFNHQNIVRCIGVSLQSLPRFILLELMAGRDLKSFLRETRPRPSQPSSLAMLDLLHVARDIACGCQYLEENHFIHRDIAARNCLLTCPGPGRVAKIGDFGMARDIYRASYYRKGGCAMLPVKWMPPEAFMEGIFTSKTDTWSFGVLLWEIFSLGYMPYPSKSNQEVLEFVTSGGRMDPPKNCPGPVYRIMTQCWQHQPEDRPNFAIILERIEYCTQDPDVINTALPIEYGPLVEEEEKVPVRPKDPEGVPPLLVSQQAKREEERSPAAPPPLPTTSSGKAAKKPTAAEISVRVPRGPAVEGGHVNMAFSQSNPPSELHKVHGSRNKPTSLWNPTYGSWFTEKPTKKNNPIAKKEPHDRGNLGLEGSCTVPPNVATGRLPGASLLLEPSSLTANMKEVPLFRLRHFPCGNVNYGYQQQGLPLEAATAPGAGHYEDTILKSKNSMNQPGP
Chain of ALK(L1196M) (Q9UM73 19-1620 L1196M): as the sequence (Q9UM73 19-1620 G1202R) above, with L1178M, R1184G counted along it
Chain of ALK (Q9UM73 19-1620): as the sequence (Q9UM73 19-1620 G1202R) above, with R1184G counted along it

On to `Cc1cc(Nc2ncc(Cl)c(Nc3ccccc3N(C)S(C)(=O)=O)n2)c(OCC(F)(F)F)cc1C1=CCN(C2CCOCC2)CC1` [Example 7, N-(2-((5-chloro-2-((5-methyl-4-(1-(tetrahydro-2H-pyran-4-yl)-1,2,3,6-tetrahydropyridin-4-yl)-2-(2,2,2-trifluoroethoxy)phenyl)amino)pyrimidin-4-yl)amino)phenyl)-N-methylmethanesulfonamide], for which the IC50 in experiment [1] came out at 16.8 nM; in experiment [2], 0.05 nM; in experiment [3], 0.5 nM; in experiment [4], 10.5 nM; in experiment [5], 39.1 nM.

As for `Cc1cc(Nc2ncc(Cl)c(Nc3ccccc3N(C3CC3)S(C)(=O)=O)n2)c(OC(C)C)cc1C1=CCN(C2CCOCC2)CC1` [Example 5, N-(2-((5-chloro-2-((2-isopropoxy-5-methyl-4-(1-(tetrahydro-2H-pyran-4-yl)-1,2,3,6-tetrahydropyridin-4-yl)phenyl)amino)pyrimidin-4-yl)amino)phenyl)-N-cyclopropylmethanesulfonamide], the results for the IC50 in experiment [2], in experiment [3] and in experiment [4] were 0.5 nM, 3.1 nM and 153 nM, respectively.

On to `Cc1cc(Nc2ncc(Cl)c(Nc3ccccc3N(C)S(C)(=O)=O)n2)c(OC(C)C)cc1C1=CCN(C2CCOCC2)CC1` [Example 1, N-(2-((5-chloro-2-((2-isopropoxy-5-methyl-4-(1-(tetrahydro-2H-pyran-4-yl)-1,2,3,6-tetrahydropyridin-4-yl)phenyl)amino)pyrimidin-4-yl)amino)phenyl)-N-methylmethanesulfonamide], for which the half-inhibitory concentration (IC50) in experiment [2] stood at 0.2 nM; in experiment [3], 1.1 nM; in experiment [4], 17.8 nM.

In the case of `Cc1cc(Nc2ncc(Cl)c(Nc3ccccc3NS(C)(=O)=O)n2)c(OC(C)C)cc1C1=CCN(C2CCOCC2)CC1` [Example 2, N-(2-((5-chloro-2-((2-isopropoxy-5-methyl-4-(1-(tetrahydro-2H-pyran-4-yl)-1,2,3,6-tetrahydropyridin-4-yl)phenyl)amino)pyrimidin-4-yl)amino)phenyl)methanesulfonamide], the values for the 50% inhibitory concentration (IC50) in experiment [2], in experiment [3] and in experiment [4] were 0.6 nM, 1.8 nM and 25.8 nM, respectively.

`Cc1cc(Nc2ncc(Cl)c(Nc3ccccc3S(=O)(=O)C(C)C)n2)c(OC(C)C)cc1C1=CCN(C2CCOCC2)CC1` [APG-2449, reference compound]: the IC50 was 62.9 nM in experiment [1]; 0.9 nM in experiment [2]; 0.8 nM in experiment [3]; over 1000 nM in experiment [4]; 87.8 nM in experiment [5].

Consider `Cc1cc(Nc2ncc(Cl)c(Nc3ccccc3N(C)S(=O)(=O)C3CC3)n2)c(OC(C)C)cc1C1=CCN(C2CCOCC2)CC1` [Example 3, N-(2-((5-chloro-2-((2-isopropoxy-5-methyl-4-(1-(tetrahydro-2H-pyran-4-yl)-1,2,3,6-tetrahydropyridin-4-yl)phenyl)amino)pyrimidin-4-yl)amino)phenyl)-N-methylcyclopropanesulfonamide], for which the half-inhibitory concentration (IC50) worked out at 43.1 nM in experiment [1]; 0.05 nM in experiment [2]; 0.6 nM in experiment [3]; 0.7 nM in experiment [4]; 31.9 nM in experiment [5].

Take `Cc1cc(Nc2ncc(Cl)c(Nc3ccccc3N(C(C)C)S(C)(=O)=O)n2)c(OC(C)C)cc1C1=CCN(C2CCOCC2)CC1` [Example 6, N-(2-((5-chloro-2-((2-isopropoxy-5-methyl-4-(1-(tetrahydro-2H-pyran-4-yl)-1,2,3,6-tetrahydropyridin-4-yl)phenyl)amino)pyrimidin-4-yl)amino)phenyl)-N-isopropylmethanesulfonamide]: the IC50 in experiment [2] was found to be 6.7 nM; in experiment [3], 0.6 nM; in experiment [4], 254 nM.

`Cc1cc(Nc2ncc(Cl)c(Nc3ccccc3N(C)S(=O)(=O)C(C)C)n2)c(OC(C)C)cc1C1=CCN(C2CCOCC2)CC1` [Example 4, N-(2-((5-chloro-2-((2-isopropoxy-5-methyl-4-(1-(tetrahydro-2H-pyran-4-yl)-1,2,3,6-tetrahydropyridin-4-yl)phenyl)amino)pyrimidin-4-yl)amino)phenyl)-N-methylpropane-2-sulfonamide]: the values for the IC50 in experiment [2], in experiment [3] and in experiment [4] were 0.3 nM, 0.9 nM and 161 nM, respectively.

As for `Cc1cc(Nc2ncc(Cl)c(Nc3ccccc3N(C)S(N)(=O)=O)n2)c(OC(C)C)cc1C1=CCN(C2CCOCC2)CC1` [Example 8], the half-maximal inhibitory concentration (IC50) in experiment [1] was 20.8 nM; in experiment [2] it was 0.07 nM; in experiment [3] it was 0.6 nM; in experiment [4], 17.8 nM; in experiment [5] it was 22.1 nM.
